According to patent US8389523B2, “Substituted quinoxaline and an agrochemical composition thereof” (Kumiai Chemical Industry Co., Ltd., priority 2007, dated 2013):

How the values were obtained:
Assay type in all cases: in vivo
Parameters in all cases: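 grade 0 to 5 of growth suppression where 5 is 90% or more and 0 below 10%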
Amaranthus viridis L. = test: Herbicidal effects in upland field foliar treatment (Test Example 3); details: criteria of Table 138; for herbicidal effects on Amaranthus viridis L.: 1000 g of the active ingredient per hectare, 14th day after the treatment, wettable powder; for herbicidal effect (index) on Amaranthus viridis L.: 1000 g active ingredient per hectare, 14th day after treatment
Description: (§1) Test Example 3 Test on Herbicidal Effects in Upland Field Foliar Treatment A 80-cm^2 plastic pot was filled with upland field soil. Seeds of Echinochloa crus-galli (L.) P. Beauv. var. crus-galli, Abutilon theophrasti medicus and Amaranthus viridis L. were sowed, and the plants were grown for two weeks in a greenhouse. A wettable powder formulation prepared according to Preparation Example 1 was diluted with water, and was sprayed with a small sprayer to perform foliar application over the entirety of plants from the upper side, in an amount equivalent to 1000 liters per hectare, such that 1000 g of the active ingredient per hectare was applied. Thereafter, the plants were grown in a greenhouse, and on the 14th day after the treatment, the herbicidal effects were investigated according to the criteria described in the Table 138 shown above.

[1] = system: Abutilon theophrasti medicus; test: as above; details: criteria of Table 138; for herbicidal effects on Abutilon theophrasti medicus: 1000 g of the active ingredient per hectare, 14th day after the treatment, wettable powder; for herbicidal effect (index) on Abutilon theophrasti medicus: 1000 g active ingredient per hectare, 14th day after treatment
Description: as §1

[2] = system: Echinochloa crus-galli (L.) P. Beauv. var. crus-galli; test: as above; details: criteria of Table 138; for herbicidal effects on Echinochloa crus-galli (L.) P. Beauv. var. crus-galli: 1000 g of the active ingredient per hectare, 14th day after the treatment, wettable powder; for herbicidal effect (index) on Echinochloa crus-galli (L.) P. Beauv. var. crus-galli: 1000 g active ingredient per hectare, 14th day after treatment
Description: as §1

[3] = system: Monochoria vaginalis (Burm. f.) Presl var. plantaginea (Roxb.) Solms-Laub.; test: Herbicidal effects in paddy field soil treatment (Test Example 1); details: paddy field soil treatment; 1000 g of the active ingredient per hectare; wettable powder added dropwise on water surface; 21st day after treatment
Description: (§2) Test for Herbicidal Effects in Paddy Field Soil Treatment
(§3) A 100-cm^2 plastic pot was filled with paddy field soil. After puddling and leveling, seeds of Echinochloa oryzicola Vasing, Monochoria vaginalis (Burm. f.) Presl var. plantaginea (Roxb.) Solms-Laub., and Scirpus juncoides Roxb. var. ohwianus. T. Koyama were sowed, and the soil was waterlogged to a water depth of 3 cm. On the next day, a wettable powder formulation prepared according to Preparation Example 1 was diluted with water, and was added dropwise on the water surface. The amount of application was an amount equivalent to 1000 g of the active ingredient per hectare. Thereafter, the plants were grown in a greenhouse, and on the 21st day after the treatment, the herbicidal effects were investigated according to the criteria described in Table 138.

[4] = system: Scirpus juncoides Roxb. var. ohwianus. T. Koyama; test: as above; details: paddy field soil treatment; 1000 g of the active ingredient per hectare; wettable powder added dropwise on water surface; 21st day after treatment
Description: as §2, §3

[5] = system: Echinochloa oryzicola Vasing; test: as above; details: paddy field soil treatment; 1000 g of the active ingredient per hectare; wettable powder added dropwise on water surface; 21st day after treatment
Description: as §2, §3

Structure (SMILES) | herbicidal effects on Amaranthus viridis L. (Amaranthus viridis L.) | herbicidal effects on Abutilon theophrasti medicus [1] | herbicidal effects on Echinochloa crus-galli (L.) P. Beauv. var. crus-galli [2] | Herbicidal effects index, Monochoria vaginalis (Burm. f.) Presl var. plantaginea (Roxb.) Solms-Laub. [3] | Herbicidal effects index, Scirpus juncoides Roxb. var. ohwianus. T. Koyama [4] | Herbicidal effects index, Echinochloa oryzicola Vasing [5] | herbicidal effect (index) on Amaranthus viridis L. (Amaranthus viridis L.) | herbicidal effect (index) on Abutilon theophrasti medicus [1] | herbicidal effect (index) on Echinochloa crus-galli (L.) P. Beauv. var. crus-galli [2]
CSc1cccc(-n2c(=O)c(C(=O)C3=C(O)CCCC3=O)nc3ccccc32)c1 [II-121] | 4 | 4 | 4 | 5 | 5 | 4 |  |  | 
CC(C)Oc1cccc(-n2c(=O)c(C(=O)C3=C(O)CCCC3=O)nc3ccccc32)c1 [II-74] | 4 | 4 | 3 | 5 | 5 | 5 |  |  | 
C#CCn1c(=O)c(C(=O)C2=C(O)CCCC2=O)nc2ccccc21 [I-35] |  |  |  | 5 | 5 | 5 | 5 | 5 | 4
C[S+]([O-])CCOCn1c(=O)c(C(=O)C2=C(O)CCCC2=O)nc2ccccc21 (stereo not drawn) [I-67] |  |  |  | 5 | 5 | 4 | 5 | 5 | 4
CS(=O)(=O)CCn1c(=O)c(C(=O)C2=C(O)CCCC2=O)nc2ccccc21 [Compound I-92] |  |  |  | 5 | 5 | 4 | 5 | 5 | 5
CCCOc1cccc(-n2c(=O)c(C(=O)C3=C(O)CCCC3=O)nc3ccccc32)c1 [II-71] | 5 | 5 | 4 | 5 | 5 | 4 |  |  | 
CN(C)c1ccc(-n2c(=O)c(C(=O)C3=C(O)CCCC3=O)nc3ccccc32)cc1 [II-210] | 5 | 5 | 4 | 5 | 5 | 5 |  |  | 
COc1ccc(-n2c(=O)c(C(=O)C3=C(O)CCCC3=O)nc3cccc(OC)c32)cc1 [II-257] | 5 | 4 | 5 | 5 | 5 | 5 |  |  | 
COc1ccc(-n2c(=O)c(C(=O)C3=C(O)CCCC3=O)nc3cccc(Cl)c32)cc1 [II-197] | 5 | 4 | 5 | 5 | 5 | 5 |  |  | 
CN(C)C(=O)Cn1c(=O)c(C(=O)C2=C(O)CCCC2=O)nc2ccccc21 [Compound I-100] |  |  |  |  |  |  | 5 | 4 | 5
O=C1CCCC(O)=C1C(=O)c1nc2ccccc2n(C2CCSC2)c1=O (stereo not drawn) [I-136] |  |  |  |  |  |  | 5 | 5 | 4
